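48-hour exposure; five concentrations; linearly interpolated endpoints. Here, GI50 denotes the concentration required for 50% inhibition of growth.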 Calls of active or inactive are those of the source. No stated cut-off is given here; in the data, active = GI50 up to about 1.1 µM and inactive = higher.
Columns and labels:
Experiment in all cases: NCI-60 cell line screen, 48 h
SF-268 = tested on: SF-268
A549 = tested on: A549
DU-145 = tested on: DU-145
HCT-15 = tested on: HCT-15
HL-60 = tested on: HL-60
SN12C = tested on: SN12C
SW-620 = tested on: SW-620
T47D = tested on: T47D
UACC-62 = tested on: UACC-62
SF-539 = tested on: SF-539
SF-295 = tested on: SF-295
OVCAR-3 = tested on: OVCAR-3
M14 = tested on: M14
NCI-H460 = tested on: NCI-H460
Hs-578T = tested on: Hs-578T
RXF 393 = tested on: RXF 393
SNB-75 = tested on: SNB-75
OVCAR-8 = tested on: OVCAR-8
HOP-92 = tested on: HOP-92
SK-MEL-5 = tested on: SK-MEL-5

SMILES | GI50 (SF-268) | GI50 (A549) | GI50 (DU-145) | GI50 (HCT-15) | GI50 (HL-60) | GI50 (SN12C) | GI50 (SW-620) | GI50 (T47D) | GI50 (UACC-62) | GI50 (SF-539) | GI50 (SF-295) | GI50 (OVCAR-3) | GI50 (M14) | GI50 (NCI-H460) | GI50 (Hs-578T) | GI50 (RXF 393) | GI50 (SNB-75) | GI50 (OVCAR-8) | GI50 (HOP-92) | GI50 (SK-MEL-5)
COc1cccc2c(=O)c3c(n(C)c12)OC(C(C)C)C3 (stereo not drawn) | > 100 µM (inactive) | > 100 µM (inactive) | > 100 µM (inactive) | 46.9 µM | 69.7 µM (inactive) | > 100 µM (inactive) | > 100 µM (inactive) | 87.3 µM (inactive) | > 100 µM (inactive) | > 100 µM (inactive) | > 100 µM (inactive) | > 100 µM (inactive) | > 100 µM (inactive) | 52.1 µM (inactive) | > 100 µM (inactive) | > 100 µM (inactive) | > 100 µM (inactive) | > 100 µM (inactive) | > 100 µM (inactive) | 56.1 µM (inactive)
COC(=O)/C(=C\c1cn(C(C)=O)c2ccccc12)P(=O)(OC)OC | 22.4 µM (inactive) | 16.4 µM (inactive) | 13.4 µM (inactive) | 14.5 µM | 78.5 µM (inactive) | 14.8 µM (inactive) | 18.5 µM (inactive) | 13.7 µM (inactive) | 11.5 µM (inactive) | 16 µM (inactive) | 14.9 µM (inactive) | 17.1 µM (inactive) | 15.2 µM (inactive) | 15 µM (inactive) | 27 µM (inactive) | 16.7 µM (inactive) | 12 µM (inactive) | 22.5 µM (inactive) | 16.6 µM (inactive) | 13.4 µM (inactive)
O=C(Nc1ccc2[nH]c(C(=O)N3CC(CCl)c4c3cc([N+](=O)[O-])c3ccccc43)cc2c1)c1cc2ccccc2o1 (stereo not drawn) | > 100 µM (inactive) | > 100 µM (inactive) | > 51.6 µM (inactive) | > 63.4 µM | 22.1 µM (inactive) | > 100 µM (inactive) | > 58.1 µM (inactive) | > 55.2 µM (inactive) | > 100 µM (inactive) | > 1100 µM (inactive) | 395 µM (inactive) | > 100 µM (inactive) | > 100 µM (inactive) | > 37.5 µM (inactive) | > 100 µM (inactive) | > 1100 µM (inactive) | > 56.6 µM (inactive) | > 55.6 µM (inactive) | > 58.5 µM (inactive) | > 100 µM (inactive)
CSC1SCC2C(=O)N(C)C3(CC3C)C(=O)OCC(NC(=O)c3nc4ccccc4cc3O)C(=O)NC(C)C(=O)N(C)C1C(=O)N(C)C1(CC1C)C(=O)OCC(NC(=O)c1nc3ccccc3cc1O)C(=O)NC(C)C(=O)N2C (stereo not drawn) | < 0.0001 µM (active) | < 0.0001 µM (active) | < 0.0001 µM (active) | 0.0146 µM | < 0.0001 µM (active) | < 0.0001 µM (active) | < 0.0001 µM (active) | < 0.0001 µM (active) | < 0.0001 µM (active) | < 0.0001 µM (active) | < 0.0001 µM (active) | < 0.0001 µM (active) | < 0.0001 µM (active) | < 0.0001 µM (active) | < 0.0001 µM (active) | < 0.0001 µM (active) | < 0.0001 µM (active) | < 0.0001 µM (active) | < 0.0001 µM (active) | < 0.0001 µM (active)
O=C(N=C1N(c2ccccc2)C(=O)C(=O)N1c1ccccc1)c1ccccc1 | 15.1 µM (inactive) | 5.48 µM (inactive) | 6.7 µM (inactive) | 9.66 µM | 31.2 µM (inactive) | 10.6 µM (inactive) | 13.1 µM (inactive) | 15.6 µM (inactive) | 7.93 µM (inactive) | 12.6 µM (inactive) | 11.3 µM (inactive) | – | – | 11.7 µM (inactive) | 4.65 µM (inactive) | 3.58 µM (inactive) | 11.3 µM (inactive) | 9.35 µM (inactive) | 2.99 µM (inactive) | 14.9 µM (inactive)
COc1ccc(/C=C/C(=O)c2ccccc2)cc1OC | 14.5 µM (inactive) | 20.9 µM (inactive) | 11.4 µM (inactive) | 7.03 µM | 8.89 µM (inactive) | 14.6 µM (inactive) | 4.23 µM (inactive) | 10.8 µM (inactive) | 13.4 µM (inactive) | 11.1 µM (inactive) | 16.4 µM (inactive) | 11.4 µM (inactive) | 15 µM (inactive) | 16.6 µM (inactive) | 25 µM (inactive) | 14.3 µM (inactive) | 14 µM (inactive) | 16.3 µM (inactive) | 18.5 µM (inactive) | 16.8 µM (inactive)
O=C1C=CC(=O)c2ncccc21 | 10.9 µM (inactive) | 10.1 µM (inactive) | 7.8 µM (inactive) | 2.08 µM | 0.31 µM (active) | 5.14 µM (inactive) | 1.93 µM (inactive) | 2.19 µM (inactive) | 2.99 µM (inactive) | 7.98 µM (inactive) | 7.6 µM (inactive) | 1.3 µM (inactive) | 3.68 µM (inactive) | 3.98 µM (inactive) | 10.2 µM (inactive) | 6.01 µM (inactive) | 5.36 µM (inactive) | 9.04 µM (inactive) | 1.63 µM (inactive) | 6.5 µM (inactive)
